Measurements published in ChEMBL document CHEMBL1157432, “Effect of linkage geometry on biological activity in thiourea- and guanidine-substituted acridines and platinum-acridines” (Bioorg Med Chem Lett, 2008).

Assays:
[1] = test system: HL-60; test: Cytotoxicity against human HL60 cells after 72 hrs by MTS method; format: functional, cell-based; settings: HL-60, 72 h
[2] = test system: NCI-H460; test: Cytotoxicity against human NCI-H460 cells after 72 hrs by MTS method; format: functional, cell-based; settings: NCI-H460, 72 h
[3] = Dissociation constant, pKa of the compound; format: physicochemical

SMILES | IC50 [1] | IC50 [2] | pKa [3]
CNC(=N)N(C)CCNc1c2ccccc2nc2ccccc12 | 79.7 µM | 10.3 µM | 9
CNC(=N)N(C)CCNC(=O)c1cccc2cc3ccccc3nc12 | 8.4 µM | > 100 µM | –
CNC(=S)N(C)CCNC(=O)c1cccc2cc3ccccc3nc12 | > 100 µM | 30.9 µM | –
CNC(=S)N(C)CCNc1c2ccccc2nc2ccccc12 [ACRAMTU] | – | – | 9
